Test results: US12643903B2, “Bifunctional compounds for degradation of EGFR and related methods of use” (BeiGene, Ltd., priority 2020, dated 2026)

Tests used:
EGFR DTC = experiment: Cell Degradation 3: EGFR degradation in BaF3 cells (DTC), HTRF assay; assay type: cell-based; conditions: 16 h treatment, EGFR degradation by HTRF
Protocol: (§1) Cell Degradation 3 Cell Treatment
(§2) BaF3 cells are treated with compounds diluted in 0.2% DMSO, dilution is done according to the following protocol: (1) make 500× stock solution in DMSO from 5 mM by 4-fold dilution, total 8 doses were included; (2) make 2× solution in cell culture medium by transferring 0.5 μl 500× stock solution into 125 μl medium; (3) 30 μl of 2× solution is added to cells and incubate for 16 h.
(§3) After 16 h treatment, add 20 μl 4×lysis buffer to each well; seal the plate and incubate 1 hour at room temperature on a plate shaker; Once the cells are lysed, 16 μL of cell lysate are transferred to a PE 384-well HTRF detection plate (for triple mutant cells, the lysate were diluted by the qual volume 1×lysis buffer before transfer); 4 μL of pre-mixed HTRF antibodies are added to each well; Cover the plate with a plate sealer, spin 1000 rpm for 1 min, Incubate overnight at room temperature; Read on BMG PheraStar with HTRF protocol (337 nm-665 nm-620 nm).
(§4) The IC50 (DC50) value of a compound can be obtained by fitting the following equation Y=Bottom+(TOP−Bottom)/(1+((IC50/X)^hillslope))
(§5) Wherein, X and Y are known values, and IC50, Hillslope, Top and Bottom are the parameters obtained by fitting with software. Y is the inhibition percentage (calculated from the equation), X is the concentration of the compound; IC50 is the concentration of the compound when the 50% inhibition is reached. The smaller the IC50 value is, the stronger the inhibitory ability of the compound is. Vice versa, the higher the IC50 value is, the weaker the ability the inhibitory ability of the compound is; Hillslope represents the slope of the fitted curve, generally around 1*; Bottom represents the minimum value of the curve obtained by data fitting, which is generally 0%±20%; Top represents the maximum value of the curve obtained by data fitting, which is generally 100%±20%. The experimental data were fitted by calculating and analyzing with Dotmatics data analysis software.

EGFR LTC = molecular target: T1, EGFR LTC (Homo sapiens, UniProt P00533, C797S/L858R/T790M); experiment: Cell Degradation 3: EGFR degradation in BaF3 cells (LTC), HTRF assay; assay type: cell-based; conditions: 16 h treatment, EGFR degradation by HTRF
T1 construct: expressed in transfected cells; host or cells: BaF3
T1 sequence (P00533 25-1210 T790M/C797S/L858R): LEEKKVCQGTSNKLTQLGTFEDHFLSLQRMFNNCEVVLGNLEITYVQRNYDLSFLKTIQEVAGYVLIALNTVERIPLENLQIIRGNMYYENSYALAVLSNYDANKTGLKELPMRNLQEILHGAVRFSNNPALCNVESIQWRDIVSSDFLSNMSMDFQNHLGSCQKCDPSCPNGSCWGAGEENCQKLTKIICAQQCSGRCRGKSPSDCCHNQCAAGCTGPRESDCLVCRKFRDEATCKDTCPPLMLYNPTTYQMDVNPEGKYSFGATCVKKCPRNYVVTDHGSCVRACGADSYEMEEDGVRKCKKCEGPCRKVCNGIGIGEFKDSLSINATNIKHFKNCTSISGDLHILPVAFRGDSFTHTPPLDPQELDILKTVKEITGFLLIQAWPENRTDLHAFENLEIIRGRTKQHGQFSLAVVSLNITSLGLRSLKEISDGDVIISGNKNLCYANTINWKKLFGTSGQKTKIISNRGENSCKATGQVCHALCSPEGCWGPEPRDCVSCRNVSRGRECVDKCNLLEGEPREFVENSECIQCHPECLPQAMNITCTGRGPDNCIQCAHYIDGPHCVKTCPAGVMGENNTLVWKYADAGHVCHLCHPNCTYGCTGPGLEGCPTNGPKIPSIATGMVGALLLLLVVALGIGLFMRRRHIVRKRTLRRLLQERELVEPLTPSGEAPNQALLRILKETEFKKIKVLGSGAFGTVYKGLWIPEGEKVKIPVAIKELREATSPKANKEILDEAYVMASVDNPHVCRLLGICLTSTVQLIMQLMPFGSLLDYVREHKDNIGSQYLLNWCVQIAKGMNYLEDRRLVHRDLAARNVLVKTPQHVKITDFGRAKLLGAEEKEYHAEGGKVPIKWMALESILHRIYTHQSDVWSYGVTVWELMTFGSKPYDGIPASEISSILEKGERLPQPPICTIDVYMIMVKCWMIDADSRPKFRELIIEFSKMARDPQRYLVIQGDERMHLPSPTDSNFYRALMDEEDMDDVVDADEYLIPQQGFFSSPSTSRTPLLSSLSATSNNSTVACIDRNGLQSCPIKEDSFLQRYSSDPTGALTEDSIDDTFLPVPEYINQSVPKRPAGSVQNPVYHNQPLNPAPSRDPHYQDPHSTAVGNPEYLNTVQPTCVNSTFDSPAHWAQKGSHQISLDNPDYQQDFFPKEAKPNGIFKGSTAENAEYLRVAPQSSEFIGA
Protocol: as §1, §2, §3, §4, §5

Row | DC50 (EGFR DTC) [nM] | DC50 (EGFR LTC) [nM] | Compound
1 | 6 | 15 | COc1cc(N2CCC(N3CCN(C(=O)C4CN(c5cc(F)c(C6CCC(=O)NC6=O)c(F)c5)C4)CC3)CC2)c(C)cc1Nc1ncc(Br)c(Nc2cccc3c2N(S(C)(=O)=O)CC3)n1 (stereo not drawn) [Example 188, 3-(4-(3-(4-(1-(4-((5-bromo-4-((1-(methylsulfonyl)indolin-7-yl)amino)pyrimidin-2-yl)amino)-5-methoxy-2-methylphenyl)piperidin-4-yl)piperazine-1-carbonyl)azetidin-1-yl)-2,6-difluorophenyl)piperidine-2,6-dione]
2 | 8 | 23 | COc1cc(N2CCC(N3CCN(C(=O)C4CCN(c5ccc6c(c5)C(=O)N(C5CCC(=O)NC5=O)C6=O)CC4)CC3)CC2)c(C)cc1Nc1ncc(Cl)c(Nc2cccc3c2N(S(C)(=O)=O)CC3)n1 (stereo not drawn) [Example 178, 5-(4-(4-(1-(4-((5-chloro-4-((1-(methylsulfonyl)indolin-7-yl)amino)pyrimidin-2-yl)amino)-5-methoxy-2-methylphenyl)piperidin-4-yl)piperazine-1-carbonyl)piperidin-1-yl)-2-(2,6-dioxopiperidin-3-yl)isoindoline-1,3-dione]
3 | 77 | 70 | COc1cc(N2CCC(N3CCN(C4CC(c5ccc(NC6CCC(=O)NC6=O)cc5)C4)CC3)CC2)c(C)cc1Nc1ncc(Br)c(Nc2cccc3c2N(S(C)(=O)=O)CC3)n1 (stereo not drawn) [Example 182, 3-((4-(3-(4-(1-(4-((5-bromo-4-((1-(methylsulfonyl)indolin-7-yl)amino)pyrimidin-2-yl)amino)-5-methoxy-2-methylphenyl)piperidin-4-yl)piperazin-1-yl)cyclobutyl)phenyl)amino)piperidine-2,6-dione]
4 | 150 | 162 | CCc1cc(Nc2ncc(Br)c(Nc3cccc4c3N(S(C)(=O)=O)CC4)n2)c(OC)cc1N1CCC(N2CCN(CCC3CCN(c4cc(F)c(C5CCC(=O)NC5=O)c(F)c4)CC3)CC2)CC1 (stereo not drawn) [Example 160, 3-(4-(4-(2-(4-(1-(4-((5-bromo-4-((1-(methylsulfonyl)indolin-7-yl)amino)pyrimidin-2-yl)amino)-2-ethyl-5-methoxyphenyl)piperidin-4-yl)piperazin-1-yl)ethyl)piperidin-1-yl)-2,6-difluorophenyl)piperidine-2,6-dione]
5 | 175 | 247 | COc1cc(N2CCC(N3CCN(CCOc4cccc5c4C(=O)N(C4CCC(=O)NC4=O)C5=O)CC3)CC2)c(C)cc1Nc1ncc(Br)c(Nc2cccc3c2N(S(C)(=O)=O)CC3)n1 (stereo not drawn) [Example 166, 4-(2-(4-(1-(4-((5-bromo-4-((1-(methylsulfonyl)indolin-7-yl)amino)pyrimidin-2-yl)amino)-5-methoxy-2-methylphenyl)piperidin-4-yl)piperazin-1-yl)ethoxy)-2-(2,6-dioxopiperidin-3-yl)isoindoline-1,3-dione]
6 | 27 | 33 | COc1cc(N2CCC(N3CCN(CC4CN(c5cc(F)c(C6CCC(=O)NC6=O)c(F)c5)C4)CC3)CC2)c(C)cc1Nc1ncc(Br)c(Nc2cccc3c2N(S(C)(=O)=O)CC3)n1 (stereo not drawn) [Example 184, 3-(4-(3-((4-(1-(4-((5-bromo-4-((1-(methylsulfonyl)indolin-7-yl)amino)pyrimidin-2-yl)amino)-5-methoxy-2-methylphenyl)piperidin-4-yl)piperazin-1-yl)methyl)azetidin-1-yl)-2,6-difluorophenyl)piperidine-2,6-dione]
7 | 14 | 30 | COc1cc(N2CCC(N3CCN(CC4CN(c5ccc6c(c5)C(=O)N(C5CCC(=O)NC5=O)C6)C4)CC3)CC2)c(C)cc1Nc1ncc(Br)c(Nc2cccc3c2N(S(C)(=O)=O)CC3)n1 (stereo not drawn) [Example 180, 3-(6-(3-((4-(1-(4-((5-bromo-4-((1-(methylsulfonyl)indolin-7-yl)amino)pyrimidin-2-yl)amino)-5-methoxy-2-methylphenyl)piperidin-4-yl)piperazin-1-yl)methyl)azetidin-1-yl)-1-oxoisoindolin-2-yl)piperidine-2,6-dione]
8 | 6 | 27 | COc1cc(N2CCC(N3CCN(CCC4CCN(c5cc(F)c(C6CCC(=O)NC6=O)c(F)c5)CC4)CC3=O)CC2)c(C)cc1Nc1ncc(Br)c(Nc2cccc3c2N(S(C)(=O)=O)CC3)n1 (stereo not drawn) [Example 186, 3-(4-(4-(2-(4-(1-(4-((5-bromo-4-((1-(methylsulfonyl)indolin-7-yl)amino)pyrimidin-2-yl)amino)-5-methoxy-2-methylphenyl)piperidin-4-yl)-3-oxopiperazin-1-yl)ethyl)piperidin-1-yl)-2,6-difluorophenyl)piperidine-2,6-dione]
9 | 91 | 100 | COc1cc(N2CCC(N3CCN(C[C@H]4C[C@H](N(C)c5ccc6c(c5)C(=O)N(C5CCC(=O)NC5=O)C6=O)C4)CC3)CC2)c(C)cc1Nc1ncc(Br)c(Nc2cccc3c2N(S(C)(=O)=O)CC3)n1 (stereo partly drawn) [Example 165, 5-(((1r,3r)-3-((4-(1-(4-((5-bromo-4-((1-(methylsulfonyl)indolin-7-yl)amino)pyrimidin-2-yl)amino)-5-methoxy-2-methylphenyl)piperidin-4-yl)piperazin-1-yl)methyl)cyclobutyl)(methyl)amino)-2-(2,6-dioxopiperidin-3-yl)isoindoline-1,3-dione]
10 | 43 | 64 | COc1cc(N2CCC(N3CCN(CC4CCN(c5cc(F)c(C6CCC(=O)NC6=O)c(F)c5)CC4)CC3)CC2)c(C)cc1Nc1ncc(Br)c(Nc2cccc3c2N(S(C)(=O)=O)CC3)n1 (stereo not drawn) [Example 181, 3-(4-(4-((4-(1-(4-((5-bromo-4-((1-(methylsulfonyl)indolin-7-yl)amino)pyrimidin-2-yl)amino)-5-methoxy-2-methylphenyl)piperidin-4-yl)piperazin-1-yl)methyl)piperidin-1-yl)-2,6-difluorophenyl)piperidine-2,6-dione]
11 | 21 | 33 | COc1cc(N2CCC(N3CCN(C[C@H]4CCN(c5ccc6c(c5)C(=O)N(C5CCC(=O)NC5=O)C6=O)C4)CC3)CC2)c(C)cc1Nc1ncc(Br)c(Nc2cccc3c2N(S(C)(=O)=O)CC3)n1 (stereo partly drawn) [Example 156, 5-((R)-3-((4-(1-(4-((5-bromo-4-((1-(methylsulfonyl)indolin-7-yl)amino)pyrimidin-2-yl)amino)-5-methoxy-2-methylphenyl)piperidin-4-yl)piperazin-1-yl)methyl)pyrrolidin-1-yl)-2-(2,6-dioxopiperidin-3-yl)isoindoline-1,3-dione]
12 | 14 | 17 | COc1cc(N2CCC(N3CCN(CC4CN(c5ccc6c(c5)C(=O)N(C5CCC(=O)NC5=O)C6=O)C4)CC3)CC2)c(C)cc1Nc1ncc(Br)c(Nc2cccc3c2N(S(C)(=O)=O)CC3)n1 (stereo not drawn) [Example 151, 5-(3-((4-(1-(4-((5-bromo-4-((1-(methylsulfonyl)indolin-7-yl)amino)pyrimidin-2-yl)amino)-5-methoxy-2-methylphenyl)piperidin-4-yl)piperazin-1-yl)methyl)azetidin-1-yl)-2-(2,6-dioxopiperidin-3-yl)isoindoline-1,3-dione]
13 | 52 | 60 | COc1cc(N2CCC(N3CCN(C[C@@H]4CCN(c5ccc6c(c5)C(=O)N(C5CCC(=O)NC5=O)C6=O)C4)CC3)CC2)c(C)cc1Nc1ncc(Br)c(Nc2cccc3c2N(S(C)(=O)=O)CC3)n1 (stereo partly drawn) [Example 164, 5-((S)-3-((4-(1-(4-((5-bromo-4-((1-(methylsulfonyl)indolin-7-yl)amino)pyrimidin-2-yl)amino)-5-methoxy-2-methylphenyl)piperidin-4-yl)piperazin-1-yl)methyl)pyrrolidin-1-yl)-2-(2,6-dioxopiperidin-3-yl)isoindoline-1,3-dione]
14 | 15 | 27 | COc1cc(N2CCC(N3CCN(CCNc4cccc5c4CN(C4CCC(=O)NC4=O)C5=O)CC3)CC2)c(C)cc1Nc1ncc(Br)c(Nc2cccc3c2N(S(C)(=O)=O)CC3)n1 (stereo not drawn) [Example 173, 3-(4-((2-(4-(1-(4-((5-bromo-4-((1-(methylsulfonyl)indolin-7-yl)amino)pyrimidin-2-yl)amino)-5-methoxy-2-methylphenyl)piperidin-4-yl)piperazin-1-yl)ethyl)amino)-1-oxoisoindolin-2-yl)piperidine-2,6-dione]
15 | 39 | 57 | COc1cc(N2CCC(N3CCN(CC4CN(c5ccc(C6CCC(=O)NC6=O)c(F)c5)C4)CC3)CC2)c(C)cc1Nc1ncc(Br)c(Nc2cccc3c2N(S(C)(=O)=O)CC3)n1 (stereo not drawn) [Example 169, 3-(4-(3-((4-(1-(4-((5-bromo-4-((1-(methylsulfonyl)indolin-7-yl)amino)pyrimidin-2-yl)amino)-5-methoxy-2-methylphenyl)piperidin-4-yl)piperazin-1-yl)methyl)azetidin-1-yl)-2-fluorophenyl)piperidine-2,6-dione]
